Measured values: patent US9096492B2, “Hydrated N-fullerene amino acids, method for producing the latter, and pharmaceutical compositions on the basis thereof” (priority 2011, dated 2015)
Where two headings read alike, the source gives them in different places.

Key:
[1] = tested on: A/Swine/1976/31 (H1N1) influenza virus; type: in vivo, mice; conditions: for Infectious virus titer (log10EID50/20 mg tissue): lung tissue
[2] = rat, in vivo
[3] = rat, in vivo; remark: listed apart in the source
[4] = rat, in vivo; remark: listed apart in the source
solid Ehrlich carcinoma = assay: Solid Ehrlich carcinoma in white mice, tumor size dynamics
[5] = tested on: Ehrlich ascites carcinoma; assay: Ehrlich ascites carcinoma in white mice, body weight dynamics
[6] = Chronic toxicity in rats, intramuscular 30 days: clinical observation and body weight; conditions: 3, 9, or 20 mg/kg intramuscularly daily for a month

N-fullerene tris(δ-aminocaproic acid) hydrate [Agent 1]
Average lifetime (LD) ([1]; 30 mg/kg, Summary dose, n=30): 10.6 days | Increase in LD ([1]; 30 mg/kg, Summary dose, n=30): 1.9 days | Mortality rate, % ([1]; 30 mg/kg, Summary dose, n=30): 56.7% | Number of survivors ([1]; 30 mg/kg, Summary dose, n=30): 13 | Average lifetime (LD) ([1]; 30 mg/kg, virus 1 LD50, n=15): 12.3 days | Increase in LD ([1]; 30 mg/kg, virus 1 LD50, n=15): 1.7 days | Mortality rate, % ([1]; 30 mg/kg, virus 1 LD50, n=15): 40.0% | Number of survivors ([1]; 30 mg/kg, virus 1 LD50, n=15): 9 | Average lifetime (LD) ([1]; 30 mg/kg, virus 10 LD50, n=15): 8.9 days | Increase in LD ([1]; 30 mg/kg, virus 10 LD50, n=15): 2.4 days | Mortality rate, % ([1]; 30 mg/kg, virus 10 LD50, n=15): 73.3% | Number of survivors ([1]; 30 mg/kg, virus 10 LD50, n=15): 4 | Average lifetime (LD) ([1]; 100 mg/kg, Summary dose, n=28): 11.8 days | Increase in LD ([1]; 100 mg/kg, Summary dose, n=28): 3.1 days | Mortality rate, % ([1]; 100 mg/kg, Summary dose, n=28): 39.3% | Number of survivors ([1]; 100 mg/kg, Summary dose, n=28): 17 | Average lifetime (LD) ([1]; 100 mg/kg, virus 1 LD50, n=15): 13.1 days | Increase in LD ([1]; 100 mg/kg, virus 1 LD50, n=15): 2.5 days | Mortality rate, % ([1]; 100 mg/kg, virus 1 LD50, n=15): 26.7% | Number of survivors ([1]; 100 mg/kg, virus 1 LD50, n=15): 11 | Average lifetime (LD) ([1]; 100 mg/kg, virus 10 LD50, n=13): 10.3 days | Increase in LD ([1]; 100 mg/kg, virus 10 LD50, n=13): 3.7 days | Mortality rate, % ([1]; 100 mg/kg, virus 10 LD50, n=13): 53.8% | Number of survivors ([1]; 100 mg/kg, virus 10 LD50, n=13): 6 | Average lifetime (LD) ([1]; 300 mg/kg, Summary dose, n=28): 12.3 days | Increase in LD ([1]; 300 mg/kg, Summary dose, n=28): 3.7 days | Mortality rate, % ([1]; 300 mg/kg, Summary dose, n=28): 32.1% | Number of survivors ([1]; 300 mg/kg, Summary dose, n=28): 19 | Size of chronic post-influenza pneumonia sites (% of the total surface area of the lungs) ([1]; 300 mg/kg, the lower of the virus doses used, day 15): 25 ± 7% | Average lifetime (LD) ([1]; 300 mg/kg, virus 1 LD50, n=14): 13.6 days | Increase in LD ([1]; 300 mg/kg, virus 1 LD50, n=14): 3.0 days | Mortality rate, % ([1]; 300 mg/kg, virus 1 LD50, n=14): 21.4% | Number of survivors ([1]; 300 mg/kg, virus 1 LD50, n=14): 11 | Average lifetime (LD) ([1]; 300 mg/kg, virus 10 LD50, n=14): 11.0 days | Increase in LD ([1]; 300 mg/kg, virus 10 LD50, n=14): 4.4 days | Mortality rate, % ([1]; 300 mg/kg, virus 10 LD50, n=14): 42.9% | Number of survivors ([1]; 300 mg/kg, virus 10 LD50, n=14): 8 | Infectious virus titer (log10EID50/20 mg tissue) ([1]; 300 mg/kg, virus dose 1 LD50): 3.7 ± 0.3 log10EID50/20 mg tissue | Infectious virus titer (log10EID50/20 mg tissue) ([1]; 300 mg/kg, virus dose 5 LD50): 4.1 ± 0.2 log10EID50/20 mg tissue | Basophils, % ([2]; 3 mg/kg): 0% | Erythrocytes, Mln/mm ([2]; 3 mg/kg): 6.5 ± 1.2 Mln/mm | Young, % ([2]; 3 mg/kg): 0% | Basophils, % ([2]; 9 mg/kg): 0% | Erythrocytes, Mln/mm ([2]; 9 mg/kg): 6.4 ± 0.5 Mln/mm | Young, % ([2]; 9 mg/kg): 0% | Avg. erythr. volume., mcm ([2]; 20 mg/kg): 50.4 ± 1.5 mcm | Basophils, % ([2]; 20 mg/kg): 0% | Erythrocytes, Mln/mm ([2]; 20 mg/kg): 6.3 ± 0.8 Mln/mm | Hematocrit, % ([2]; 20 mg/kg): 31.2 ± 3.5% | Young, % ([2]; 20 mg/kg): 0% | Weight coefficients of viscera, Spleen [3]: 5.2 ± 0.7 g/kg body weight | Weight coefficients of viscera, heart [3]: 4.1 ± 0.4 g/kg body weight | Weight coefficients of viscera, kidneys [3]: 6.5 ± 0.4 g/kg body weight | Weight coefficients of viscera, liver [3]: 32.2 ± 1.8 g/kg body weight | Weight coefficients of viscera, lungs [3]: 7.1 ± 0.5 g/kg body weight | Weight coefficients of viscera, thymus [3]: 1.2 ± 0.4 g/kg body weight | weight coefficients of organs versus control [3]: no significant difference was found between experimental and control animals | weight coefficients of viscera versus control [3]: no distinctions between the rats of the experimental groups and the control group | Weight coefficients of viscera, Spleen ([3]; 3 mg/kg): 4.7 ± 0.5 g/kg body weight | Weight coefficients of viscera, heart ([3]; 3 mg/kg): 3.5 ± 0.7 g/kg body weight | Weight coefficients of viscera, kidneys ([3]; 3 mg/kg): 7.2 ± 0.5 g/kg body weight | Weight coefficients of viscera, heart ([3]; 9 mg/kg): 3.8 ± 0.6 g/kg body weight | induction of microscopic changes in organs [4]: the identified changes were not induced by the studied substance | Animals with changes, Number: Liver, Plethora of sinusoidal capillaries ([4]; 20 mg/kg): 5 | Animals with changes, Number: Lung, Thickening of the interalveolar septa (total) ([4]; 20 mg/kg): 1 | Animal body weight, g (M ± SD) (females, 5 mg/kg single i.m., day 0): 19.1 ± 2. g | Animal body weight, g (M ± SD) (females, 5 mg/kg single i.m., day 7): 20.6 ± 2 g | Animal body weight, g (M ± SD) (females, 5 mg/kg single i.m., day 14): 22.8 ± 2. g | Animal body weight, g (M ± SD) (females, 50 mg/kg single i.m., day 0): 18.6 ± 1. g | Animal body weight, g (M ± SD) (females, 50 mg/kg single i.m., day 7): 19.9 g | Animal body weight, g (M ± SD) (females, 50 mg/kg single i.m., day 14): 21.9 ± 1. g | Animal body weight, g (M ± SD) (females, 500 mg/kg single i.m., day 0): 18.9 ± 1. g | Animal body weight, g (M ± SD) (females, 500 mg/kg single i.m., day 7): 20.7 ± 0 g | Animal body weight, g (M ± SD) (females, 500 mg/kg single i.m., day 14): 22.8 ± 1. g | Animal body weight, g (M ± SD) (males, 5 mg/kg single i.m., day 0): 23.0 ± 2.9 g | Animal body weight, g (M ± SD) (males, 5 mg/kg single i.m., day 7): 24.1 ± 2 g | Animal body weight, g (M ± SD) (males, 5 mg/kg single i.m., day 14): 25.4 ± 2. g | Animal body weight, g (M ± SD) (males, 50 mg/kg single i.m., day 0): 22.4 ± 2.1 g | Animal body weight, g (M ± SD) (males, 50 mg/kg single i.m., day 7): 23.7 ± 2 g | Animal body weight, g (M ± SD) (males, 50 mg/kg single i.m., day 14): 25.4 ± 2. g | Animal body weight, g (M ± SD) (males, 500 mg/kg single i.m., day 0): 22.6 ± 2.2 g | Animal body weight, g (M ± SD) (males, 500 mg/kg single i.m., day 7): 24.2 ± 1 g | Animal body weight, g (M ± SD) (males, 500 mg/kg single i.m., day 14): 26.2 ± 1. g | local irritant effect (mice and rats, after a single intramuscular injection): does not cause a local irritant effect | death during the 14-day observation period (mice, 5, 50 and 500 mg/kg single i.m.): No death occurred | LD50 (mice, single intramuscular administration, exceeds the maximal tested dose): > 500 mg/kg | Tumor size (mm^3) (solid Ehrlich carcinoma; 100 mg/kg, day 8 post transplantation): 72.5 mm^3 | Tumor size (mm^3) (solid Ehrlich carcinoma; 100 mg/kg, day 13 post transplantation): 544.3 mm^3 | Tumor size (mm^3) (solid Ehrlich carcinoma; 100 mg/kg, day 17 post transplantation): 693.6 mm^3 | Tumor size (mm^3) (solid Ehrlich carcinoma; 100 mg/kg, day 21 post transplantation): 1250.8 mm^3 | Tumor size (mm^3) (solid Ehrlich carcinoma; 100 mg/kg, day 24 post transplantation): 1654.3 mm^3 | Tumor size (mm^3) (solid Ehrlich carcinoma; 100 mg/kg, day 28 post transplantation): 2239.8 mm^3 | Tumor size (mm^3) (solid Ehrlich carcinoma; 300 mg/kg, day 8 post transplantation): 72.7 mm^3 | Tumor size (mm^3) (solid Ehrlich carcinoma; 300 mg/kg, day 13 post transplantation): 416.3 mm^3 | Tumor size (mm^3) (solid Ehrlich carcinoma; 300 mg/kg, day 17 post transplantation): 1224.6 mm^3 | Tumor size (mm^3) (solid Ehrlich carcinoma; 300 mg/kg, day 21 post transplantation): 1703.4 mm^3 | Tumor size (mm^3) (solid Ehrlich carcinoma; 300 mg/kg, day 24 post transplantation): 2048.5 mm^3 | Tumor size (mm^3) (solid Ehrlich carcinoma; 300 mg/kg, day 28 post transplantation): 2525.7 mm^3 | Animal body weight ([5]; day 1 post tumor transplantation): 18.6 ± 2.3 g | Animal body weight ([5]; day 3 post tumor transplantation): 18.8 ± 2.2 g | Animal body weight ([5]; day 5 post tumor transplantation): 18.8 ± 1.9 g | Animal body weight ([5]; day 8 post tumor transplantation): 19.4 ± 1.7 g | Animal body weight ([5]; day 10 post tumor transplantation): 19.9 ± 1.7 g | Animal body weight ([5]; day 13 post tumor transplantation): 20.4 ± 1.5 g | Animal body weight ([5]; day 15 post tumor transplantation): 20.4 ± 1.4 g | clinical signs of poisoning [6]: no clinical signs of poisoning were observed
